{"source": "patent US10274488B2", "about": "“Glycan arrays on PTFE-like aluminum coated glass slides and related methods” (Academia Sinica, priority 2008, dated 2019)", "system": "cellulase from T. reesei", "assay": "Enzymatic hydrolysis on the PTFE-like ACG slide with cellulase from T. reesei, MS-TOF readout", "assay_type": "biochemical, Trichoderma reesei", "settings": "reaction on the ACG slide, pH 5", "protocol": "Enzymatic hydrolysis of the immobilized poly-fluorinated cellobiose 8 (see FIG. 14) was first conducted in situ on the phosphonic acid slide surface. Three commercially available cellulases, Aspergillus niger (A. niger), Trichoderma reesei (T. reesei), and Trichoderma viride (T. viride) were prepared separately at 5 U/mL in a sodium acetate (25 mM) buffer solution (pH 5) and loaded onto the functionalized slide which has been divided into 16 wells using Fast Frame reaction chambers. For comparison, an aliquot of enzyme solution (100 μL) was added to the solution of fluorinated cellobiose (100 μL of 0.5 mM) in eppendorfs to carry out the enzymatic hydrolysis reactions in solution. After the reaction, it was transferred to the empty wells of the same slide. Each well was rinsed separately three times with de-ionized water and the slide was dried again under high vacuum before subjecting to MS-TOF analysis.\nUnder MS-TOF analysis, the clean background baseline allowed calculation of the percentage of hydrolyzed components for each sample. As shown in the MS-TOF results in FIG. 20, percentages of hydrolyzed products are calculated from the peak intensities of each spectrum. According to implementations of experimental data shown in FIG. 20, MS-TOF data of enzymatic hydrolysis of poly-fluorinated cellobiose in solution in FIG. 20A and immobilized on PTFE-like ACG slide in FIG. 20B. The control are the same experimental conditions run without enzymes in (a); (b), (c), and (d) are experimental conditions with the cellulase proteins from A. niger (b), T. reesei (c), and T. viride (d).\nCellulase was prepared (5 U/mL in 25 mM pH 5.05 NaOAc buffer solution). Substrate was also dissolved in NaOAc buffer solution (25 mM, pH 5.05) to give 0.5 mM substrate solution. Add 50 μL cellulase solution to 50 μL substrate solution onto the glass slide which was loaded in FAST® Frame multi-slide plate to have a 2.5 U/mL cellulase solution with 0.25 mM substrate. The well of the plate was sealed and the whole assembly was incubated in 37° C. for 18 hours. Put the slide in dry box to remove the water, and then use high vacuum to remove trace water. 100 uL water was used to rinse each well of the FAST® Frame multi-slide plate to solve and remove the salt of the buffer solution. Remove any residual water on the plate by high vacuum and then analyzed the slide by MALDI-TOF Ultra-Flex II.", "data": [{"molecule": "O=C(NCCCCCO[C@@H]1O[C@H](CO)[C@@H](O[C@@H]2O[C@H](CO)[C@@H](O)[C@H](O)[C@H]2O)[C@H](O)[C@H]1O)OCCCC(F)(F)C(F)(F)C(F)(F)C(F)(F)C(F)(F)C(F)(F)C(F)(F)C(F)(F)F", "note": "[Compound 8, [(4,4,5,5,6,6,7,7,8,8,9,9,10,10,11,11,12,12,12-nonadecafluorododecoxycarbonyl-amino)pentyl] ß-D-cellobioside]", "values": [{"measurement": "Biose (un-hydrolyzed cellobiose), percentage of hydrolyzed pattern", "result": 69, "unit": "%"}, {"measurement": "F-tail, percentage of hydrolyzed pattern", "result": 7, "unit": "%"}, {"measurement": "Glucose, percentage of hydrolyzed pattern", "result": 25, "unit": "%"}, {"measurement": "Triose, percentage of hydrolyzed pattern", "result": "0/0%"}]}]}
